The record followed here is patent US10988459B2 (priority 2015, dated 2021).

The structures appear in SMILES notation. Read-outs that look alike come from different tables or passages of the source.

This assay addresses human RIP1 kinase domain (2-375) (Homo sapiens (Human), UniProt Q13546). Kind of assay: biochemical. The assay is classed as biochemical. The settings on record: 50 uM ATP. In a few lines:
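50 nM purified kinase domain from baculovirus-infected insect cells, incubated 2 h with compound in 50 mM Hepes pH 7.5, 30 mM MgCl2, 1 mM DTT, 50 uM ATP, 0.002% Brij-35, 0.5% DMSO. ADP formation read by Transcreener FP at 633 nm excitation. Ki^app fitted with the Morrison tight-binding equation.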

Where [1] appears, read: human RIP1 kinase domain (2-375), Transcreener ADP assay, 2 hours incubation, read-out: RIP1 Ki.
Where [2] appears, read: tight-binding apparent inhibition constant, human RIP1 kinase domain (2-375) 50 nM, 2 hours, read-out: Ki.
Setting [3] is: human RIP1 kinase domain (2-375), 2 hours incubation, Transcreener ADP assay, read-out: RIP1 Ki.
Where [4] appears, read: Table 5, apparent Ki (Morrison tight-binding fit), 50 nM RIP1 kinase domain, 2 hours incubation, read-out: Ki.

Chain of human RIP1 kinase domain (2-375) (Q13546 2-375): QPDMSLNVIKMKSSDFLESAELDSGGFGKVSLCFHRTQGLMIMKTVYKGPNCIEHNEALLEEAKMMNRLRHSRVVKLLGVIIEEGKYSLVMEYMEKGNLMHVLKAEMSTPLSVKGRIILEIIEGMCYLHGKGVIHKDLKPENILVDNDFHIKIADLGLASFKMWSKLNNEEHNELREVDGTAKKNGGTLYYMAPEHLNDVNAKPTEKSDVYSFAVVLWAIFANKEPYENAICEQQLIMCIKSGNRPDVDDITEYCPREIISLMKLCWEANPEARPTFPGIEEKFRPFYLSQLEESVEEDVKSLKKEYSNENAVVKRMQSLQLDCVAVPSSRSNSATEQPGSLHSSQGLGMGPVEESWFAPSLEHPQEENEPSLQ

In the case of `CN1C(=O)C(NC(=O)c2n[nH]c(Cc3ccccc3)n2)CCn2nc(C3CCOCC3)cc21` (centres unmarked) [Example 235, 5-benzyl-N-(4-methyl-5-oxo-2-(tetrahydro-2H-pyran-4-yl)-5,6,7,8-tetrahydro-4H-pyrazolo[1,5-a][1,3]diazepin-6-yl)-1H-1,2,4-triazole-3-carboxamide], the Ki under setting [1] is 226 nM.
As to `CN1C(=O)[C@@H](NC(=O)c2ncc3cnn(C4CCCC4)c3n2)COc2ccccc21` [Example 485, 1-cyclopentyl-N-[(3S)-5-methyl-4-oxo-2,3-dihydro-1,5-benzoxazepin-3-yl]pyrazolo[3,4-d]pyrimidine-6-carboxamide], under setting [2], the Ki was 4.2 nM.
For the molecule `CN1C(=O)[C@@H](NC(=O)c2ncc3c(n2)C2(CCCC2)OC3)CCn2nccc21` [Example 565, N-[(6S)-4-methyl-5-oxo-7,8-dihydro-6H-pyrazolo[1,5-a][1,3]diazepin-6-yl]spiro[5H-furo [3,4-d]pyrimidine-7,1′-cyclopentane]-2-carboxamide], under setting [2], the Ki was determined as 70 nM.
`Cc1cnn2c1N(C)C(=O)[C@@H](NC(=O)c1ncn(Cc3ccccc3)n1)CC2` [Example 166, (S)-1-benzyl-N-(3,4-dimethyl-5-oxo-5,6,7,8-tetrahydro-4H-pyrazolo[1,5-a][1,3]diazepin-6-yl)-1H-1,2,4-triazole-3-carboxamide]: the Ki under setting [3] was 20 nM.
`CC(C)[C@@H]1CCCc2nc(C(=O)N[C@H]3COc4cc(F)cc(F)c4NC3=O)nn21` (single isomer, unassigned) [Example 444]: the Ki under setting [2] came out at 4.67 nM.
Regarding `CN1C(=O)C(NC(=O)c2n[nH]c3c2C[C@@H](C(F)(F)F)CC3)CCn2ccnc21` (stereo partly drawn) [Example 176, (5S)—N-(9-methyl-8-oxo-6,7,8,9-tetrahydro-5H-imidazo[1,2-a][1,3]diazepin-7-yl)-5-(trifluoromethyl)-4,5,6,7-tetrahydro-1H-indazole-3-carboxamide], the Ki under setting [3] turned out to be 1400 nM.
Take `CN1C(=O)[C@@H](NC(=O)c2cc3c(cn2)CO[C@]3(C)C(F)(F)F)COc2ccccc21` [Example 742, (1S)-1-methyl-N-[(3S)-5-methyl-4-oxo-2,3-dihydro-1,5-benzoxazepin-3-yl]-1-(trifluoromethyl)-3H-furo[3,4-c]pyridine-6-carboxamide]: the Ki under setting [4] came out at 10 nM.
Turning to `CN1C(=O)[C@@H](NC(=O)c2ncc3n2CC(CC(F)(F)F)CC3)COc2ccccc21` (stereo partly drawn) [Example 469, N-[(3S)-5-methyl-4-oxo-2,3-dihydro-1,5-benzoxazepin-3-yl]-6-(2,2,2-trifluoroethyl)-5,6,7,8-tetrahydroimidazo[1,5-a]pyridine-3-carboxamide], under setting [2], the Ki worked out at 1000 nM.
Turning to `CN1C(=O)[C@@H](NC(=O)c2ncn(Cc3cccc(Cl)c3)n2)CCn2nc(C(F)(F)F)cc21` [Example 533], the Ki under setting [2] stood at 45 nM.
As for `CN1C(=O)[C@@H](NC(=O)c2nnc(Cc3ccccc3)[nH]2)COc2c1cnn2C` [Example 181, (S)-5-benzyl-N-(1,4-dimethyl-5-oxo-4,5,6,7-tetrahydro-1H-pyrazolo[3,4-b][1,4]oxazepin-6-yl)-4H-1,2,4-triazole-3-carboxamide], the Ki under setting [3] came to 93.6 nM.
As to `Cc1nc(C)n2c1N(C)C(=O)[C@H](NC(=O)c1ncn(Cc3ccccc3)n1)CC2` [Example 608, 1-benzyl-N-(3R)-1,7,9-trimethyl-2-oxo-4,5-dihydro-3H-imidazo[1,5-a][1,3]diazepin-3-yl-1,2,4-triazole-3-carboxamide], the Ki under setting [2] came out at 190 nM.
With `CN1C(=O)[C@@H](NC(=O)c2ncn(Cc3ccccc3)n2)CCn2nc(CN3CC(F)C3)cc21` [Example 782, (S)-1-benzyl-N-(2-((3-fluoroazetidin-1-yl)methyl)-4-methyl-5-oxo-5,6,7,8-tetrahydro-4H-pyrazolo[1,5-a][1,3]diazepin-6-yl)-1H-1,2,4-triazole-3-carboxamide], under setting [4], the Ki is 142 nM.
Take `Cc1cn2c(n1)N(C)C(=O)C(NC(=O)c1ncn(Cc3ccccc3)n1)CC2` (centres unmarked) [Example 535, 1-benzyl-N-(2,9-dimethyl-8-oxo-6,7,8,9-tetrahydro-5H-imidazo[1,2-a][1,3]diazepin-7-yl)-1H-1,2,4-triazole-3-carboxamide]: under setting [2], the Ki was found to be 130 nM.
Regarding `C[C@H]1CCc2onc(C(=O)N[C@H]3COc4ccccc4N(C)C3=O)c2C1` [Example 68, (S)-5-methyl-N-((S)-5-methyl-4-oxo-2,3,4,5-tetrahydrobenzo[b][1,4]oxazepin-3-yl)-4,5,6,7-tetrahydrobenzo[d]isoxazole-3-carboxamide], the Ki (Table 1, apparent Ki (Morrison tight-binding fit), 50 nM RIP1 kinase domain, 2 hours incubation, read-out: RIP1 Ki) amounted to 53.8 nM.
Consider `CN1C(=O)[C@@H](NC(=O)c2nc3n(n2)[C@H](c2cnn(C)c2)CCC3)COc2ccccc21` (racemic) [Example 411, (S)-5-(1-methyl-1H-pyrazol-4-yl)-N—((S)-5-methyl-4-oxo-2,3,4,5-tetrahydrobenzo[b][1,4]oxazepin-3-yl)-5,6,7,8-tetrahydro-[1,2,4]triazolo[1,5-a]pyridine-2-carboxamide], for which the Ki under setting [2] was found to be 6500 nM.
Regarding `CN1C(=O)[C@@H](NC(=O)c2ncn(CC3(C)CC3)n2)CCn2nc(C3CC3)cc21` [Example 308, (S)—N-(2-cyclopropyl-4-methyl-5-oxo-5,6,7,8-tetrahydro-4H-pyrazolo[1,5-a][1,3]diazepin-6-yl)-1-((1-methylcyclopropyl)methyl)-1H-1,2,4-triazole-3-carboxamide], the Ki under setting [1] is 172 nM.
As for `CN1C(=O)C(NC(=O)c2cn(Cc3ccccc3)nn2)CCn2nc3c(c21)CCCC3` (centres unmarked) [Example 135, 1-benzyl-N-(1-methyl-2-oxo-2,3,4,5,8,9,10,11-octahydro-1H-[1,3]diazepino[1,2-b]indazol-3-yl)-1H-1,2,3-triazole-4-carboxamide], the Ki under setting [3] stood at 390 nM.
For the molecule `CN1C(=O)[C@@H](NC(=O)c2nc3n(n2)[C@@H](c2ccccc2)CC3)CCn2nccc21` (single isomer, unassigned) [Example 362], the Ki under setting [2] was determined as 896 nM.
`Cc1ncn2c1N(C)C(=O)[C@H](NC(=O)c1ncn(Cc3ccccc3)n1)CC2` [Example 505, 1-benzyl-N-(3R)-1,9-dimethyl-2-oxo-4,5-dihydro-3H-imidazo[1,5-a][1,3]diazepin-3-yl-1,2,4-triazole-3-carboxamide]: under setting [2], the Ki came out at 36 nM.
Turning to `O=C(N[C@H]1COc2cc(F)cc(F)c2NC1=O)c1ncc2c(n1)C1(CCC1)OC2` [Example 617, N-[(3S)-6,8-difluoro-4-oxo-3,5-dihydro-2H-1,5-benzoxazepin-3-yl]spiro[5H-furo[3,4-d]pyrimidine-7,1′-cyclobutane]-2-carboxamide], the Ki under setting [2] was determined as 11 nM.
